From patent US8404646B2, “Methods for preventing or treating mitochondrial permeability transition” (Cornell Research Foundation, Inc., priority 2003, dated 2013)
Non-standard residues stand in square brackets, D forms with d. Residues, ends and D or L forms follow the SMILES beside them. *: point of attachment. Dansyl = CN(C)c1cccc2c(S(=O)(=O)*)cccc12; Dmt = Cc1cc(O)cc(C)c1C[C@H](N)C(=O)O; Dap = NC[C@H](N)C(=O)O

Legend:
[1] = Body weight and heart rate during the infarction/reperfusion experiment; assay type: in vivo, rat
Experimental: Adult male […] rats (F344 strain, National Institute of Aging, maintained by Harian Sprague-Dawley Inc.), weighting between 285 and 425 gm, were used. Twenty-four rats (n=8/group) were randomly assigned to one of three groups: (1) Control group was given 0.4 ml of saline as an intra-peritoneal (IP) injection 30 minutes before the ligation of left anterior descending coronary artery, followed by same IP dose injection 5 minutes before reperfusion; (2) SS-31 group was treated with SS-31 (3 mg/kg dissolved in 0.4 ml of saline) as an IP injection 30 minutes before the ligation followed by same IP dose injection as maintenance 5 minutes before reperfusion; and (3) SS-20 group was treated with SS-20 (3 mg/kg dissolved in 0.4 ml of saline) as an IP injection 30 minutes before the ligation followed by same dose IP injection as maintenance just 5 minutes before reperfusion. Also, Sham-operated rats (n=3) were used to account for possible effects related to the surgical protocol. All procedures were performed in a blinded manner, with the groups assigned letters and their identities unknown to the operators. Likewise, the two independent investigators analyzing the data were blind to the treatment assignments.
After anesthesia with ketamine (90 mg/kg IP) and xylazine (4 mg/kg IP), a tracheotomy was performed, and the rat was intubated with polyethylene tube and ventilated (Harvard Rodent Ventilator model 683) with room air and a tidal volume of 0.65 ml/100 gm of body weight at 90 breaths per minute. Body temperature was maintained at 37° C. by using a heated operating table. The internal jugular vein was surgically exposed and a polyethylene tube was inserted for Evans blue dye solution injection. Peripheral limb electrodes were inserted subcutaneously and electrocardiogram was monitored throughout the procedure.
An ECG was recorded continuously from a standard lead II (AC AMP 700) inserted into the limbs of all rats. The ECG was printed at 25 mm/second. The cardiac arrhythmias were monitored and assessed in accordance with the Lambeth Convention. The assessment was performed in a blinded manner using the original paper recordings. A validated score was used to quantify the severity of cardiac arrhythmias. The score consisted of six types: 0, no ventricular extrasystoles (VES), ventricular tachycardia (VT) or ventricular fibrillation (VF); 1=VES; 2=one to five episodes of VT (more than four coupled VES); 3=more than five episodes of VT and/or one VF; 4=two to five episodes of VF; 5=more than five episodes of VF.
All values are expressed as mean±standard error of mean (S.E.M.). Statistical analyses were performed using SPSS version 10. Differences among groups in body weight, heart rate, arrhythmia, area at risk as a percentage of the left ventricle, and area of infarction as a percentage of the area at risk were analyzed using ANOVA. If significant differences were detected, comparisons between the control group and the 2 treatment groups were conducted using the Mann-Whitney U-test. A two-tailed p<0.05 was regarded as significant.

Caco-2 cells = experiment: Confocal laser scanning microscopy of fluorescent analogs (uptake, subcellular distribution); assay type: cell-based, human; details: for subcellular distribution of fluorescence: Caco-2, CLSM
Experimental: The uptake of [Dmt^1]DALDA into Caco-2 cells was confirmed by confocal laser scanning microscopy (CLSM) using a fluorescent analog of [Dmt^1]DALDA (Dmt-D-Arg-Phe-dnsDap-NH2; where dnsDap=β-dansyl-1-α,β-diaminopropionic acid). Cells were grown as described above and were plated on (35 mm) glass bottom dishes (MatTek Corp., Ashland, Mass.) for 2 days. The medium was then removed and cells were incubated with 1 ml of HBSS containing 0.1 μM to 1.0 μM of the fluorescent peptide analog at 37° C. for 1 h. Cells were then washed three times with ice-cold HBSS and covered with 200 μl of PBS, and microscopy was performed within 10 min at room temperature using a Nikon confocal laser scanning microscope with a C-Apochromat 63×/1.2 W corr objective. Excitation was performed at 340 nm by means of a UV laser, and emission was measured at 520 nm. For optical sectioning in z-direction, 5-10 frames with 2.0 μm were made.
To examine the subcellular distribution of [Dmt^1]DALDA, the fluorescent analog, [Dmt^1, AtnDap^4]DALDA (Dmt-D-Arg-Phe-atnDap-NH2; where atn=β-anthraniloyl-1-α,β-diamino-propionic acid), was prepared. The analog contained β-anthraniloyl-1-α,β-diaminopropionic acid in place of the lysine reside at position 4. The cells were grown as described in Example 1 and were plated on (35 mm) glass bottom dishes (MatTek Corp., Ashland, Mass.) for 2 days. The medium was then removed and cells were incubated with 1 ml of HBSS containing 0.1 μM of [Dmt^1, AtnDap^4]DALDA at 37° C. for 15 min to 1 h.
Cells were also incubated with tetramethylrhodamine methyl ester (TMRM, 25 nM), a dye for staining mitochondria, for 15 min at 37° C. Cells were then washed three times with ice-cold HBSS and covered with 200 μl of PBS, and microscopy was performed within 10 min at room temperature using a Nikon confocal laser scanning microscope with a C-Apochromat 63×/1.2 W corr objective.
For [Dmt^1, AtnDap^4]DALDA, excitation was performed at 350 nm by means of a UV laser, and emission was measured at 520 nm. For TMRM, excitation was performed at 536 nm, and emission was measured at 560 nm.

[2] = system: isolated mouse liver mitochondria; experiment: Uptake into isolated mitochondria (fluorescence quenching, radioactivity in pellet); assay type: in vitro ADME
Experimental: (FIG. 1A) Mitochondrial uptake of SS-19 was determined using fluorescence spectrophotometry (ex/em=320/420 nm). […] Pretreatment of mitochondria with FCCP (1.5 μM) reduced quenching by <20% (black line). […] Uptake was stopped by centrifugation (16000×g) for 5 min at 4° C., and radioactivity determined in the pellet. […] Data are shown as mean±s.e.; n=3. *, P<0.05 by Student's t-test. […] Black line, TMRM; red line, SS-19.
To isolate mitochondria from mouse liver, mice were sacrificed by decapitation. The liver was removed and rapidly placed into chilled liver homogenization medium. The liver was finely minced using scissors and then homogenized by hand using a glass homogenizer.
The homogenate was centrifuged for 10 min at 1000×g at 4° C. The supernatant was aspirated and transferred to polycarbonate tubes and centrifuged again for 10 min. at 3000×g, 4° C. The resulting supernatant was removed, and the fatty lipids on the side-wall of the tube were carefully wiped off.
The pellet was resuspended in liver homogenate medium and the homogenization repeated twice. The final purified mitochondrial pellet was resuspended in medium. Protein concentration in the mitochondrial preparation was determined by the Bradford procedure.
Approximately 1.5 mg mitochondria in 400 μl buffer was incubated with [^3H][Dmt^1]DALDA for 5-30 min at 37° C. The mitochondria were then centrifuged down and the amount of radioactivity determined in the mitochondrial fraction and buffer fraction. […] Thus [Dmt^1]DALDA is concentrated in mitochondria.
Thus uptake of [Dmt^1, AtnDap^4]DALDA was not potential-dependent.
To confirm that the mitochondrial targeting was not an artifact of the fluorophore, we also examined mitochondrial uptake of [^3H][Dmt^1]DALDA. Isolated mitochondria were incubated with [^3H][Dmt^1]DALDA and radioactivity determined in the mitochondrial pellet and supernatant.
We next examined the effect of mitochondrial swelling on the accumulation of [Dmt^1, AtnDap^4]DALDA in mitochondria by using alamethicin to induce swelling and rupture of the outer membrane. […] Thus, [Dmt^1]DALDA is associated with mitochondrial membranes.

Row | Compound | Heart Rate Baseline ([1]; Baseline) | Heart Rate Ischemia ([1]; first column) | Heart Rate Ischemia ([1]; second column) | Heart Rate Open chest ([1]; Open chest) | Heart Rate Reperfusion ([1]; first column) | Heart Rate Reperfusion ([1]; second column) | incubation time after which uptake into Caco-2 cells was shown (Caco-2 cells; 0.1 μM, 37° C.) [min] | subcellular distribution of fluorescence (Caco-2 cells) | distribution to mitochondria (overlap with TMRM) (Caco-2 cells; Caco-2, TMRM 25 nM) | reduction of uptake (fluorescence quenching) by FCCP pretreatment ([2]; FCCP 1.5 μM, mitochondria 0.35 mg/ml) [%] | effect of alamethicin-induced mitochondrial swelling on uptake [2] | effect of alamethicin-induced mitochondrial swelling on uptake ([2]; listed as [Dmt^1, AtnDap^4]DALDA) | uptake on addition of mitochondria (fluorescence) ([2]; ex/em 320/420 nm) | uptake of fluorescent peptide into Caco-2 cells (CLSM) (Caco-2 cells; 0.1 μM, 1 h, 37° C.)
1 | N=C(N)NCCC[C@@H](NC(=O)[C@@H](N)Cc1ccccc1)C(=O)N[C@@H](Cc1ccccc1)C(=O)N[C@@H](CCCCN)C(N)=O [SS-20, Phe-D-Arg-Phe-Lys-NH2] (H-F[dR]FK-NH2; N-terminus assumed) | 255 ± 5 | 191 ± 17 | 184 ± 15 | 211 ± 10 | 182 ± 16 | 183 ± 12 | – | – | – | – | – | – | – | –
2 | Dmt-D-Arg-Phe-atnDap-NH2 [SS-19] | – | – | – | – | – | – | 15 | completely excluded from the nucleus | demonstrated by the overlap | < 20 | retained to a large extent | only partially reversed | immediate quenching | –
3 | Cc1cc(O)cc(C)c1C[C@H](N)C(=O)N[C@H](CCCNC(=N)N)C(=O)N[C@@H](Cc1ccccc1)C(=O)N[C@@H](CNS(=O)(=O)c1cccc2c(N(C)C)cccc12)C(N)=O [[Dmt^1,DnsDap^4]DALDA, Dmt-D-Arg-Phe-dnsDap-NH2] (H-[Dmt][dR]F[Dap](Dansyl)-NH2; N-terminus assumed) | – | – | – | – | – | – | – | diffuse throughout the cytoplasm but was completely excluded from the nucleus | – | – | – | – | – | confirmed the uptake
